Data taken from US20050221381A1, “Method for isolating ligands” (priority 2002, published 2005).
Entries after “also recorded” stand apart in the source; their conditions may differ.

How the values were obtained:
[1] = in vivo; cited from earlier work
CMV = details: cited from earlier work
[2] = system: PBMC from CMV seropositive donors; assay type: cell-based, human
[3] = molecular target: T1, soluble DRB1*0404 molecules (Homo sapiens, UniProt P01903+P01911, A100R/A169T/F76Y/I96L/K127E/L162R/M171V/N62H/P40V/Q125Y/R42H/S133A/S149N/S66Y/V209L/W38E); assay: Peptide binding assay, SDS-stability assay; parameters: key: −: no binding; +/−: weak binding; +: intermediate binding; ++: strong binding; details: individual pp65 15mer
T1 construct: Soluble HLA class I A*0201 and HLA class II DRA1*0101/DRB1*0101/Ii, DRA1*0101/DRB1*0401/Ii and DRA1*0101/DRB1*0404/Ii molecules were expressed in SC-2 cells; made in house; host or cells: SC-2 cells

[4] = system: DRB1*0401, DRB1*0101, DRB1*0404, DRB1*0701 and DRB1*1101; assay: Binding to soluble HLA molecules of different allels (promiscuity); parameters: species or system human
[5] = system: PBMC (CD4 and CD8 positive T-cell compartments); assay: Intracellular IFN-γ staining combined with surface staining for CD4, CD8, CD69 (FACS); assay type: cell-based, human; details: donor 10788, peptide 80 μg/ml (FIG. 11)
Description: To distinguish between CD8-positive CTL mediated or CD4-positive HTL mediated reactivity, intracellular cytokine staining combined with staining for surface markers was performed: after thawing, PBMNC were kept overnight (37° C., 5% CO2) in RPMI1640 with 10% human serum type AB (BioWhittaker). Next day aliquots of 2 million PBMNC were incubated with peptide (80 μg/ml) or Concanavalin A (SIGMA). After 1 h, 10 μg/ml brefeldin A (SIGMA) were added and incubation was continued for 5 hours. Surface staining for CD4 (phycoerythrin), CD8 (cychrome), CD69 (allophycocyanine) was done with antibodies labelled as indicated (Pharmingen, San Diego, Calif., USA). After fixation with 1% para-formaldehyde in PBS, cells were permeabilized by incubating for 15 min in 0.5% BSA/0.1% Na-azide/0.1% saponin in PBS. Intracellular cytokines were stained with anti-IFN-γ (FITC) antibody 4S.B3 (Pharmingen). Samples (100,000 events in the lymphocyte gate) were read on a FACScalibur (Becton Dickinson).
FIG. 11: Confirmation of simultaneous CD4+ and CD8+ T-cell responses against CMVpp65 15mers 469, 470 by intracellular IFN-γ staining. PBMC from 2 donors (10687, 10788) were stimulated with either ConA as positive control (1st column), 15mers containing both putative class I and class II epitopes (columns 2 and 3) or medium as negative control (right column). Cells were stained for intracellular IFN-γ (x-axis) or surface the T-cell differentiation markers CD4 or CD8 (y-axis). Percentage in upper-right quadrant is indicated, numbers significant over background are shown boldface.

[6] = molecular target: T2, soluble DRB1*0401 molecules (DR4) (Homo sapiens, UniProt P01903+P01911, A100K/A169T/F76Y/I96L/K127E/L162R/M171V/N62H/P40V/Q125Y/R42H/S133A/S149N/S66Y/V115G/V209L/W38E); assay type: binding; parameters: key: +++: high binding affinity; ++: moderate binding affinity; +: low binding affinity; −: no binding; details: individual pp65 15mer, SDS-stability assay
T2 construct: Soluble HLA class I A*0201 and HLA class II DRA1*0101/DRB1*0101/Ii, DRA1*0101/DRB1*0401/Ii and DRA1*0101/DRB1*0404/Ii molecules were expressed in SC-2 cells; made in house; host or cells: SC-2 cells

[7] = molecular target: T1, soluble DRB1*0404 molecules; assay: Peptide binding assay, SDS-stability assay
[8] = system: CMV mutants resistant to Ganciclovir, Cidofuvir and Foscarnet; details: cited from earlier work
HLA-A2 = HLA-A2 (Homo sapiens, UniProt P04439, D140Y/D185E/D98H/E176V/E277Q/G131W/G231S/I119V/I121R/I166T/I218V/L300P/L318F/N151K/N90K/P208A/P217A/Q86G/Q94H/R138H/R169H/T345S); details: cited from earlier work
[9] = system: CD8+ T-cells, HLA-A*0201 positive T2 cells; details: interferon-gamma ELIspot
[10] = molecular target: T3, soluble DRB1*0401 molecules (Homo sapiens, UniProt P01903+P01911, A100K/A169T/F76Y/I96L/K127E/L162R/M171V/N62H/P40V/Q125Y/R42H/S133A/S149N/S66Y/V115G/V209L/W38E); assay: Epitope capture from peptide mixtures, gel filtration and MALDI-TOF MS of bound peptides; assay type: binding
T3 construct: Soluble HLA class I A*0201 and HLA class II DRA1*0101/DRB1*0101/Ii, DRA1*0101/DRB1*0401/Ii and DRA1*0101/DRB1*0404/Ii molecules were expressed in SC-2 cells; made in house; host or cells: SC-2 cells
From the text: After peptide binding reaction with soluble HLA molecules, HLA-peptide complexes were separated from free peptides by gel-filtration chromatography on Superdex-200 column (AKTAdesign, Amersham Pharmacia Biotech). HLA-containing fractions were collected, and bound peptides were reconstituted from the complexes by adding TFA to the final concentration of 1%. Peptides were desolted by Ziptip purification and analyzed by MALDI-TOF mass-spectrometry.
Second, the ability to capture peptides binding to HLA class II molecules from the mixture of two high affinity ligands was tested. The binding reaction contained 1 μM of soluble DRB1*0401 molecules and 5 μM of each YAR and 1242 peptide. After the HLA-peptide complexes were formed, they were separated from the excess of free peptides by gel filtration chromatography. Fractions containing MHC molecules were collected. Bound peptides were eluted from the complexes and analyzed by mass-spectrometry.
Third, it was investigated if the binding capacity of the high affinity ligand would be influenced by the excess of low affinity peptide. […] Peptide binding was assessed by SDS-stability assay and verified by MS analysis (FIG. 3).
The final concentration of each peptide in binding reaction was 5 μM, except 1236 added in 55 μM, meaning that the concentration of each individual binding peptide was 20-fold lower than final concentration of all peptides. DRB1*0401 molecules were added to 1 μM. The formation of MHC-peptide complexes was evaluated as described above, using single peptides as controls (FIG. 4). […] The result of this analysis yielded the two peptides with highest binding affinities: 1242 and YAR (see Table 1). The peptides with moderate and/or low affinities were not found in the complexes, probably due to the high concentration of strong competitors used in this assay.

[11] = molecular target: T2, soluble DRB1*0401 molecules (DR4); assay type: binding; parameters: key to DR4 binding: +++: high binding affinity; ++: moderate binding affinity; +: low binding affinity; −: no binding; details: SDS-stability assay
isolated CD4+ T cells = assay: Synthetic IFN-γ Elispot assay with sHLA DRB1*0401 and anti CD28; assay type: cell-based, human; details: sHLA DRB1*0401 loaded with peptide, vs negative control peptide p84 (FIG. 5a)

## CC(C)[C@H](N)C(=O)OCC(CO)OCn1cnc2c(=O)nc(N)[nH]c21 (stereo partly drawn) [Valganciclovir]
[1]
  Oral bioavailability: markedly increased
CMV; kidney transplant patients, given for three months
  Incidence of CMV disease: reduced the incidence of CMV disease
CMV; six months after transplantation
  Proportion of patients with biopsy-proven rejection: significant reduction

## EDSDNEIHNPAVFTW [Peptide 470]
[2]
  Induction of IFN-gamma secretion in T cells / PBMC from CMV seropositive donors: induce IFN-gamma secretion; also recorded: can induce functional, IFN-gamma secreting T cells in humans; also recorded: induce INF-gamma production
[3]
  Binding to DRB1*0404: +/−
[4]
  Affinity for several HLA molecules (promiscuity): affinity for at least two HLA molecules
[5]
  Intracellular IFN-γ in CD4 and CD8 positive T-cell compartments: significant IFN-γ secretion in both the CD8 and CD4 positive T-cell compartments
[6]
  Binding to DRB1*0401: −
[7]
  Binding to DRB1*0404 (in words): found to bind to DRB1*0404; also recorded: weakly binding to DRB1*0404

## Fomivirsen
[8]
  Efficacy against multidrug resistant mutants: effective against such mutants

## RLLQTGIHV
HLA-A2
  Binding to HLA-A2 / stabilisation of HLA-A2/β2m/peptide complex: can stabilize; also recorded: has been demonstrated
[9]
  Confirmation as HLA-A*0201 epitope / induction of functional T-cells (in words): induce functional T-cells

## YNINISLPSYYPDQKSL [Peptide 1242]
[10]; 1242 5 to 50 μM, 100 μM peptide 1236 (2-20 fold excess), 1 μM DRB1*0401
  Formation of stable MHC-complexes in presence of excess low affinity peptide: does not impede the formation of stable MHC-complexes
[10]; each peptide 5 μM, 1236 55 μM, DRB1*0401 1 μM
  Peptides captured from pool of 10 peptides, MS analysis: captured by DR4 molecules
[10]; mixture of two ligands, 5 μM each, 1 μM DRB1*0401
  Peptides found in complexes with MHC molecules by MS: revealed in the complexes with MHC molecules
[11]
  Binding to soluble DRB1*0401 molecules (in words): highest
[11]; direct binding of individual peptides, compared with YAR and HA306-318
  DR4 binding: +++
Isolated CD4+ T cells
  Number of induced IFN-γ spots: significantly above the spontaneous IFN-γ secretion
